First: C=CC(COC(c1ccccc1)(c1ccccc1)c1ccccc1)OCCCCCCCCCCCCCCCC (stereo not given)
Second: c1ccc(CN(CCNC(c2ccccc2)c2ccccc2)Cc2ccccc2)cc1
The melting point of the first is lower: 34 °C for the first, 89 to 91 °C for the second.

First: Cn1ncc(=O)[nH]c1=O
Second: COc1cccc(Cc2ccc3[nH]c4cnn(C)c4c(=O)c3c2)c1
The melting point of the first is lower: 118 °C for the first, 246 to 250 °C for the second.

Compared with `COc1ccc(C2CCCN(C(=O)C(F)(F)F)C2)cc1N` (stereo not given), `Cc1nc2ccc3c(c2o1)C(CCNC(=O)C(F)(F)F)CC3` (stereo not given) is higher in melting point: 88 °C for the first, 104 to 106 °C for the second.

Compared with `CCOC(=O)Cc1nc(-c2ccc(Cl)cc2)oc1-c1ccoc1`, `Oc1ccc(-c2nc3cc(O)cc(-c4ccccc4)c3o2)cc1` is lower in melting point: 124 to 125 °C for the first, 92 °C for the second.

First: O=[N+]([O-])c1ccc(Cl)c(CN2CCCCC2)c1Cl
Second: Oc1c(CN2CCCC2)cc(Nc2ccnc3cc(Cl)ccc23)cc1CN1CCCC1
The melting point of the first is lower: 67 to 68 °C for the first, 92 °C for the second.

Compared with `CSc1ncc(C=O)c(N)n1`, `COC(=O)C(=CN(C)C)c1cc(F)cc(F)c1` is lower in melting point: 184 to 186 °C for the first, 97 °C for the second.

Compared with `COc1cc2c3ccc(OC)c(OC)c3n(Cc3ccc(Br)cc3)c2cc1OC`, `COc1cc2c3ccc(OC)c(OC)c3c(=O)n(Cc3ccccc3)c2cc1OC` is higher in melting point: 143 to 144 °C for the first, 183 to 184 °C for the second.

First: CCCCCCSc1cc(SCCCCCC)c2ccc3c(SCCCCCC)cc(SCCCCCC)c4ccc1c2c43
Second: CCCCC(CC)COC(=O)CC(C(=O)OCC(CC)CCCC)S(=O)(=O)O (stereo not given)
The melting point of the first is higher: 92 °C for the first, 70 °C for the second.

First: N#CC(N)c1ccc(F)cc1 (stereo not given)
Second: N#Cc1cc(-c2ccco2)nc(N)n1
The melting point of the first is lower: 77.9 °C for the first, 193 to 194 °C for the second.

First: Cc1ccc(S(=O)(=O)C(=[N+]=[N-])C(=O)C(C)(C)C)cc1
Second: Cc1ccc(S(=O)(=O)CCCCCC(C)(C(=O)OC(C)(C)C)C(=O)OC(C)(C)C)cc1
The melting point of the first is higher: 120 to 122 °C for the first, 36.5 to 38.5 °C for the second.

First: CCOC(=O)c1c(O)c2cnc(-c3ccccc3)nc2n(Cc2ccccc2)c1=O
Second: O=c1oc2c(-c3ccccc3)cccc2c(O)c1-c1ccccc1
The melting point of the first is higher: 230 to 231 °C for the first, 211 °C for the second.

First: CN(C)Cc1nc(CO)nn1-c1ccc(Cl)cc1C(O)c1ccccc1 (stereo not given)
Second: O=C(O)c1cc(S(=O)(=O)N(CCc2ccc(Cl)cc2)Cc2ccccc2)ccc1Br
The melting point of the first is lower: 121 to 123 °C for the first, 142 to 144 °C for the second.

Compared with `Cc1ccc(S(=O)(=O)OCC(O)Cc2c(Cl)cc3c(c2O)CCC3)cc1` (stereo not given), `CN(C)S(=O)(=O)c1cc(-c2csc(=Nc3ccccc3Cl)n2C)ccc1Cl` is higher in melting point: 125 to 127 °C for the first, 152 to 154 °C for the second.

Compared with `COc1cc(NC2CCN(S(=O)(=O)c3ccccc3)CC2)ccc1C(N)=O`, `Cc1nc[nH]c1CN1CCC(Nc2nc3ccccc3n2Cc2ccco2)CC1` is higher in melting point: 166 to 168 °C for the first, 242 °C for the second.

First: COC(=O)[C@H]1[C@@H](NC(=O)OC(C)(C)C)C(=O)N1Cc1ccc(OC)cc1OC (relative stereo)
Second: COc1ccc(Nc2cccc3c2C(=O)N(C2CCC(=O)NC2=O)C3=O)c(OC)c1 (stereo not given)
The melting point of the first is lower: 134 to 135 °C for the first, 208 to 210 °C for the second.

First: CC(=O)c1cc(NC(=O)c2ccccc2)cc(C(C)=O)c1
Second: COc1ccc(NN=C(Sc2cc(C)cc(C)c2)C(C)=O)cc1
The melting point of the first is higher: 188 to 189 °C for the first, 165 to 167 °C for the second.

Compared with `Cc1cc(-c2nc3ccc(N4CCOCC4)cc3c(=O)[nH]2)cc(C)c1OCCO`, `O=C(O)c1ccc(-c2ccc3cc(OCc4ccccc4)c(C45CC6CC(CC(C6)C4)C5)cc3c2)cc1O` is lower in melting point: 280 to 281 °C for the first, 263 to 264 °C for the second.

Compared with `Cc1ccc(C)c(S(=O)(=O)c2ccc(F)c3ccccc23)c1`, `Fc1cc(F)cc(N2c3ccccc3Sc3ccccc32)c1` is lower in melting point: 142 to 143 °C for the first, 111 to 115 °C for the second.

Compared with `Cc1cccc2nc(NC(=N)N)[nH]c12`, `CC(C)(CO)Nc1nc(-c2ccc(Br)cc2)cs1` is lower in melting point: greater than 260 °C for the first, 151 to 153 °C for the second.

First: CC(C)OC(=O)c1ncn2c1cnc1ccccc12
Second: CC(=O)NC(CSCc1ccc(-c2nc(-c3ccccc3)cc(-c3ccccc3)n2)cc1)C(=O)O (stereo not given)
The melting point of the first is lower: 205 to 206 °C for the first, 223 to 226 °C for the second.

First: C=CCN(CC=C)CC1Oc2c(cc(C)c3[nH]c(=O)ccc23)C1CF (stereo not given)
Second: COc1ccc(Cn2c(=O)c3cccnc3n(CCCCl)c2=O)cc1
The melting point of the first is lower: 68 to 71 °C for the first, 114 to 115 °C for the second.

Compared with `COc1ccc(-n2cccc2-c2ccc(S(N)(=O)=O)cc2)cc1`, `NS(=O)(=O)c1c(Cl)cccc1Cn1cncn1` is higher in melting point: 112 to 114 °C for the first, 175 to 178 °C for the second.

Compared with `CCc1c(Nc2cc(C)cc(C)c2)nc(OC)nc1OC`, `Cn1c(C(F)(F)F)cc(=O)n(-c2cc(N)c(Cl)cc2F)c1=O` is higher in melting point: 113 to 114 °C for the first, 132 to 135 °C for the second.

First: ClC(Cl)=Cc1sc(-c2ccccc2)cc1-c1ccccc1
Second: ON=C(CCC1CCN(Cc2ccccc2)CC1)c1ccc(N2CCCC2)cc1
The melting point of the first is lower: 111 to 113 °C for the first, 153 to 158 °C for the second.

Compared with `O=S(=O)(Cl)C=Cc1ccc(Cl)c(Cl)c1`, `CC(C)(C)OC(=O)OC(=O)c1ccc(NNC(N)=S)cc1` is higher in melting point: 91 to 96 °C for the first, 161 to 163 °C for the second.

Reference: a melting point compilation (Tetko et al.; mined from patent text by program, amines drawn as free bases though some values may be those of a salt)
